In patent US11793983B2, “Sonodynamic therapy using microbubbles and pulsed wave ultrasound methods and systems” (University of Pittsburgh-Of the Commonwealth System of …, priority 2017, dated 2023):

System: Mouse squamous cell carcinoma cells SCC-VII
Test: Cytotoxicity in vitro with ultrasound, alamarBlue cell viability assay
Assay type: cell-based
Conditions: +US, ISAPA=1 W/cm^2, 10% duty cycle, 2 min, 24 hours after treatment
Method: Mouse squamous cell carcinoma cells SCC-VII were cultured in RPMI 1640 medium supplemented with 10% fetal bovine serum (FBS), […] and 200 IU/mL penicillin (Gibco, ThermoFisher Scientific, Waltham, Mass.). Cells were harvested and suspended in a concentration of 1×10^6 cells/mL using serum free RPMI-1640 medium. Every 2 mL of cell suspension was transferred to 14 mL Falcon round-bottom polystyrene tubes. Immediately before the US treatment, the suspension was supplemented together with various concentrations of MBPpIX. US (1 MHz, 10% duty cycle) exposure time for each acoustic condition is 2 min. During exposure, the sample tube was gently shaking occasionally (every 10 sec) to improve mixing and to provide uniform exposure. Free PpIX (first dissolved in DMSO; final concentration: 2.9 μM) or PpIX liposome (precursor of MBPpIX, with equivalent PpIX concentration of 2.9 μM) were used for comparison and cells not treated were used as controls (NT). After treatment procedure, 300 μL of the cell suspension was transferred to a 24 well plate prefilled with 2 mL cell culture medium, and the cells were incubated at 37° C. for 24 hours. Cell viability was then measured using alamarBlue cell viability assay. Cell morphology was examined with bright field microscopy (IX81, Olympus, Center Valley, Pa.). […]

With `C=CC1=C(C)c2cc3[nH]c(cc4nc(cc5[nH]c(cc1n2)c(C)c5CCC(=O)O)C(CCC(=O)O)=C4C)c(C)c3C=C` [PpIX, protoporphyrin IX] the cell viability was 4±3%.
